# From patent publication US20260007679A1, “METHODS OF TREATING CANCER USING 3-(4-((4-(MORPHOLINOMETHYL)BENZYL)OXY)-1-OXOISOINDOLIN-2-YL)PIPERIDINE-2,6-DIONE” (Celgene Corporation, priority 2012, published 2026)
# Like-named read-outs stand apart in the source and are kept apart here.
# How the values were obtained:
# [1] = system: anti-CD3-stimulated human T cells; assay: Cytokine production by T cells (multi-plex CBA); type: cell-based
# Protocol: T cells were isolated from buffy coat by negative selection using the RosetteSep® T Cell Enrichment Cocktail. The manufacturer's procedures were followed accordingly. All 96-well plates were pre-coated with […] anti-human CD3 antibody in 100 μl 1×PBS for 4 hours at 37° C. The plates were washed three times with RPMI-1640 Complete Media prior to the T cell assay. T cells were then plated in CD3 pre-coated plates at a density of 2.5×10^5 cells/well in 180 μl RPMI-1640 Complete Media. The cells were treated with 20 μl 10× titrated compounds at 10, 1, 0.1, 0.01, 0.001, 0.0001 and 0.00001 μM. Final DMSO concentrations were 0.25%. The plates were incubated for 48 hours at 37° C., 5% CO2. After 48 hours, the supernatants were harvested and tested by a multi-plex cytometric bead array (CBA) assay for the following cytokines/chemokines: IL-2, IL-3, IL-5, IL-10, IL-13, IL-15, IL-17a, GM-CSF, G-SCF, IFN-γ, TNF-α and RANTES. The CBA plates were analyzed on the Luminex IS100 instrument. Data from each donor was graphed using GraphPad Prism 5.0 software and expressed as mean pg/mL±SEM and % of DMSO control±SEM.
# [2] = system: NK cells; assay: NK IgG-induced IFN-γ assay; type: cell-based, human; details: immobilized IgG and IL-2 stimulation; 7 donors
# Text: NK cells from healthy donors were isolated from buffy coat blood by negative selection using the RosetteSep NK cell enrichment cocktail (Stem Cell Technologies, Vancouver, BC) prior to Ficoll-Hypaque (Fisher Scientific Co LLC, PA) density gradient centrifugation following the manufacturers' instructions. CD56+NK cells were isolated to ˜85% purity, as determined by flow cytometry (BD Biosciences, CA).
# NK IgG-induced Interferon-Gamma (IFN-γ) Assay: Ninety-six-well flat-bottom plates were coated with 100 µg/mL of human IgG (Sigma) overnight at 4° C. The next day, unbound IgG was washed away with cold 1×PBS. NK cells were then plated in the IgG-coated 96-well plates at 2×10^5 cells per well in 180 μL RPMI-1640 Media and 10 ng/mL of rhIL-2 (R & D Systems, MN) was added. Test compounds were added in a volume of 20 μL DMSO. Final concentrations of test compounds were […]. Final DMSO concentrations were […]. After 48 hours, the supernatants were harvested and analyzed by ELISA for IFN-γ production.
# Data used to determine the test compounds to enhance NK cell IFN-γ production in response to immobilized IgG and rhIL-2 stimulation was analyzed for each donor using GraphPad Prism v5.0 software.
# [3] = system: NCI-H929 cells (Control, Revlimid-sensitive, parental); assay: Proliferation and viability by 7-AAD staining; type: cell-based; details: Homo sapiens, NCI-H929, 120 h; Control / parental H929; 5 days; read-out: IC50, proliferation
# [4] = system: U87 Glioblastoma xenograft; assay: U87 Glioblastoma xenograft model; type: in vivo, mouse
# Protocol: Compounds I, I-R, and I-S were tested in U87 Glioblastoma xenograft model, and the results are depicted in FIG. 25.
# [5] = system: megakaryocyte progenitor cells (normal human bone marrows); assay: Megakaryocyte colony formation assay; type: cell-based; details: for IC50: Homo sapiens, 14-16 days
# Protocol: Colony formation assay was conducted with normal human bone marrows treated in semi-solid collagen matrix with compound/IL-3/IL-6/Tpo for 14-16 days, and the results are summarized in Table 7.
# [6] = system: NCI-H929 Multiple Myeloma xenograft; assay: NCI-H929 Multiple Myeloma xenograft model; type: in vivo, mouse; details: for tumor growth inhibition: day 19
# Protocol: Compounds I, I-R, and I-S were tested in NCI-H929 Multiple Myeloma xenograft model, and the results are depicted in FIG. 24.
# [7] = system: human peripheral blood mononuclear cells; assay: Cytokine profiling in LPS-stimulated hPBMC; type: cell-based; details: for IC50: Homo sapiens, PBMC, 18 h, LPS 1 ng/ml, 18 hours
# Protocol: Fifty ml human buffy coat was aliquoted 25 ml each into two 50 ml conical tubes and 25 ml sterile HBSS was added to each conical tube. The tubes were gently mixed by inverting. Fifteen ml of room temperature Ficoll-Paque Plus (GE Healthcare (location); cat #17-1440-02) was aliquoted into four 50 ml conical tubes. Then 25 ml of the Buffy coat/IBSS mixture was layered gently and slowly on top of the Ficoll. The samples were centrifuged at 450 rpm for 35 minutes. The top layered containing plasma was pipetted off and discarded. The interface containing mononuclear cells was transferred into two 50 ml conical tubes. Both conical tubes were filled to total volume of 50 ml with HBSS and centrifuged at 1200 rpm for 10 minutes. The cells were washed again in HBSS and spun at 1000 rpm for 10 minutes. Cell pellet was resuspended with 20 ml RPMI complete medium (RPMI/5% human sera/1× pen/strep/glut) and counted.
# One hundred μl (2×10^6/ml) of hPBMCs were added to each well of a 96 well flat-bottom plate (final cell count=2×10^5/well) and incubated at 37° C. for 1 hour. Twenty μl (10×) compound was added to each test well and twenty μl medium containing 2.5% DMSO was added to each control well ([DMSO]final=0.25%) and plate was incubated for 1 hour at 37° C. Cells were then stimulated with 80 μl of 2.5 ng/ml LPS ([LPS]final=1 ng/ml) and incubated for 18 hours at 37° C. Fifty μl supernatant from each well was transferred into 3 new round-bottomed 96 well plates and stored at −20° C. for Luminex analysis. Duplicate wells were performed for each sample.
# Supernatant samples were analyzed for cytokines in multiplex format according to the manufacturer's instructions (Millipore, Billerica, Ma 01821) using a Luminex IS100 instrument. IL-12 and GM-CSF analyses were done in a two-plex format using neat supernatants while all other cytokines were done in a multiplex format using supernatants diluted 1:20. Data analysis was performed using Upstate Beadview software. […] The IC50 were performed using GraphPad Prism v5.00. The data values represent the mean+SEM (standard error of the mean) of n (number of experiments in duplicate).
structure (smiles),measurement,setting,value
"O=C1CC[C@H](N2Cc3c(OCc4ccc(CN5CCOCC5)cc4)cccc3C2=O)C(=O)N1 [Compound I-S, (S)-3-(4-((4-(morpholinomethyl)benzyl)oxy)-1-oxoisoindolin-2-yl)piperidine-2,6-dione]",concentration at which enhancement of IL-5 production peaked,[1],1 nM
same,"IL-5 production, times over that of control cells",[1]; 1 nM,6 times
same,"GM-CSF production, times those of control cells",[1]; 10 nM,5 times
same,"IL-2 production, times those of control cells",[1]; 10 nM,18 times
same,"IL-13 production, times those of control cells",[1]; 10 nM,7 times
same,IL-10 production at high concentration,[1]; >10 nM,inhibited
same,"concentrations that enhanced IL-2, IL-3, IL-5, IL-10, IL-13, GM-CSF, IFN-γ, TNF-α and RANTES",[1]; for compound I RANTES at 10 nM,≥ 1 nM
same,NK cell IFN-γ production,[2],slightly more active than compound I
same,IC50,[3],10 nM
same,tumor growth inhibition,"[4]; 15 mg/kg, day 43, another study",about 47%
same,U87 tumor growth,[4]; 30 mg/kg qd,significantly inhibited U87 tumor growth
same,tumor growth inhibition,"[4]; 30 mg/kg, day 48",about 60%
same,effect on megakaryocyte progenitor cells,[5],inhibited megakaryocyte progenitor cells
same,IC50,"[5]; Bone Marrow ID 0090128, read-out: Immature Colony IC50",80 nM
same,IC50,"[5]; Bone Marrow ID 0090128, read-out: Intermediate Colony IC50",9200 nM
same,IC50,"[5]; Bone Marrow ID 0090616, read-out: Immature Colony IC50",40 nM
same,IC50,"[5]; Bone Marrow ID 0090616, read-out: Intermediate Colony IC50",650 nM
same,IC50,"[5]; Bone Marrow ID 0090714, read-out: Immature Colony IC50",50 nM
same,IC50,"[5]; Bone Marrow ID 0090714, read-out: Intermediate Colony IC50",860 nM
same,tumor growth inhibition,[6]; 0.3 mg/kg,34%
same,tumor growth inhibition,[6]; 3 mg/kg,67%
same,tumor growth inhibition,[6]; 30 mg/kg,87%
same,H929 tumor growth,"[6]; mouse, in vivo",significantly inhibited H929 tumor growth in a dose-dependent manner
same,IL-10 (% of control),[7]; 0.1 μM concentration,379 % of control
same,MCP-1 (% of control),[7]; 0.1 μM concentration,233 % of control
same,RANTES (% of control),[7]; 0.1 μM concentration,153 % of control
same,IC50,[7]; read-out: GM-CSF production IC50,2.2 nM
same,IC50,[7]; read-out: IL-1β production IC50,0.46 nM
same,IC50,[7]; read-out: IL-6 production IC50,3.8 nM
same,IC50,[7]; read-out: IL-8 production IC50,> 10000 nM
same,IC50,[7]; read-out: MDC production IC50,2.1 nM
same,IC50,[7]; read-out: MIP-1α production IC50,28 nM
same,IC50,[7]; read-out: MIP-1β production IC50,> 10000 nM
same,IC50,[7]; read-out: TNF-α production IC50,0.59 nM
